Here are results for three molecules from patent publication US20090324700A1, “METHODS AND COMPOSITIONS FOR THE INHIBITION OF CATHEPSINS” (priority 2003, published 2009).

Residues, ends and D or L forms follow the SMILES beside them. *: point of attachment. Cbz = O=C(OCc1ccccc1)*; CH2F = FC*

Assay [1] deals with RelA^−/− MEFs. Briefly: Survival assay, TNF-α and CHX, RelA^−/− MEFs. Type of assay: cell-based, mouse. The conditions noted are these: CHX 0.1 μg/ml.
Assay [2] addresses T1, cathepsin B (Mus musculus, UniProt P10605).
T1 construct: endogenous in cells; host or cells: RelA-/- or RelA+/+ MEFs (retrovirally transduced with GFP, RelA, Spi2A or antisense Spi2A)
Briefly: Cathepsin B activity in crude cytoplasmic extracts, RelA^−/− MEFs. Type of assay: cell-based. The method, then:
Survival Assays. Although RelA^−/− MEFs are markedly more sensitive to TNF-α compared to RelA^+/+ MEFs, low levels of CHX (0.1 μg/ml) were used in the survival assays. This was to suppress any protective activity of constitutively active non-RelA NF-κB molecules that are present in RelA^−/− MEFs (FIG. 4). Thus, RelA^−/− MEFs were treated with CHX and TNF-α (R&D) and the number of live GFP-positive adherent cells was counted by flow cytometry after 16 h, if not indicated otherwise. Live cells were defined as those that excluded propidium iodide (PI-negative) and had the appropriate size, as defined by forward and side scatter characteristics (Coligan et al., 1995). For RelA^+/+ MEFs, TNF-α-cytotoxicity was determined after 16 h with CHX (10 μg/ml), if not indicated otherwise. Cathepsin B activity was inhibited by a 1 h pre-treatment of MEFs with CA-074 Me (30 μM) (Peptide Institute). […] RelA^−/− MEFs were treated with (10-50 μM) sphingosine (Calbiochem) and the number of live GFP-positive adherent cells was counted by flow cytometry after 2 h.
Death effector assays. Death effector pathways were induced in […] MEFs by treatment TNF-α (0.2 ng/ml) and CHX (0.1 μg/ml). […] Protein concentration was determined by Lowry assay (DC-protein assay kit, Biorad). […]
Colorimetric assays for capases were performed in reaction buffer (50 mM HEPES, pH 7.4, 100 mM NaCl, 10 mM DTT, 1 mM EDTA, 10% glycerol, 0.1% CHAPS) at 37° C. on crude cytoplasmic extracts using p-Nitoaniline (pNA)-labeled substrates (Calbiochem) specific for caspases 3 and 7 (Ac-DEVD-pNA), caspase 8 (Ac-IETD-pNA), caspase 9 (Ac-LEHD-pNA), each at 0.2 mM. Specific activity was determined by subtracting the apparent activity detected after 1 h pre-incubation of extract with the pan-caspase inhibitor Z-VAD.fmk at 50 μM (ICN Biomedicals Inc), then normalizing for the amount of protein. […] Specific activity was determined by subtracting the apparent activity detected after 30 min pre-incubation of extract at 37° C. with the cathespin B inhibitor CA-074 Me at 30 μM (Peptide Institute) then normalizing for the amount of protein.

Assay [3] deals with caspase activity. Briefly: Caspase activity enzyme assay, NIH3T3 cells. Type of assay: cell-based. The conditions noted are these: Z-VAD.fmk 50 μM, 1 h pre-treatment; verified by enzyme assay. The method, then: (§1) TNF-α death assays. NIH3T3 cells were transduced with MIGR1 retrovirus (Zhang and Ren, 1998) encoding either GFP alone, or Spi2A in the forward (sense) or reverse (antisense) orientation and stable clones generated, as described previously (Liu et al., 2003). Cells were treated with TNF-α (R&D) and after 16 h the number of live GFP-positive adherent cells were counted by flow cytometry (Liu et al., 2003). Live cells were defined as those that excluded propidium iodide (PI-negative) and had the appropriate size, as defined by forward and side light scatter characteristics. Caspase activity was inhibited by pre-treatment of cells or extracts for 1 h with Z-VAD.fmk (ICN Biomedicals Inc; 50 μM). […] In anti-sense experiments the level of Spi2A mRNA was quantitated by real-time PCR using primers and probes specific for Spi2A (Inglis et al., 1991) and cyclofilin A control mRNA (Medhurst et al., 2000), 4 h after treatment with Z-VAD.fmk ([…]) and TNF-α (10 ng/ml), as described previously (Liu et al., 2003).

Assay [4] deals with NIH3T3 cells. In words: TNF-α death assays, NIH3T3 cells. Type of assay: cell-based. The conditions noted are these: Z-VAD.fmk 50 μM, TNF-α 10 ng/ml, 16 h; FIG. 9A. The method, then: as §1

T1 sequence (P10605 80-333): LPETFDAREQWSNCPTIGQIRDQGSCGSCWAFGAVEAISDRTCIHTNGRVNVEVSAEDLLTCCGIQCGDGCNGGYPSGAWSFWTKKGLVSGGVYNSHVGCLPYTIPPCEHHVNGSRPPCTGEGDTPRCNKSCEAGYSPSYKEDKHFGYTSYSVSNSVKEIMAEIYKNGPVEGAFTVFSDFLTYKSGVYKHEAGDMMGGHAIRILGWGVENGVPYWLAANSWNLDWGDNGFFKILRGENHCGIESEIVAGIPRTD

On to `CCCNC(=O)[C@H]1O[C@@H]1C(=O)N[C@H](C(=O)N1CCC[C@H]1C(=O)OC)[C@@H](C)CC` [CA-074 Me, reference compound], for which the “Protection from TNF-α-induced death (percentage survival)” value in assay [1] (CA-074 Me 30 μM, TNF-α 0.5 ng/ml, FIG. 1A) is on record as “protected”. Moreover, in assay [2] (CA-074 Me 30 μM, 1 h pre-treatment, verified by enzyme assay), the “Inhibition of cathepsin B activity in MEFs” value is recorded as “complete inhibition”.

Consider `COC(=O)C[C@H](NC(=O)[C@H](C)NC(=O)[C@@H](NC(=O)OCc1ccccc1)C(C)C)C(=O)CF` [Z-VAD.fmk, reference compound] (Cbz-Val-Ala-Asp(OMe)-CH2F), for which the “Inhibition of caspase activity” value in assay [3] is “complete inhibition”. In addition, in assay [4], the “Sensitization to PCD by TNF-α (percentage survival)” value is “sensitized”.

Turning to “RelA: human RelA (p65) cDNA expressed from MIGR1 retrovirus in RelA^−/− MEFs [reference compound]”, in assay [1] (16 h, FIG. 1B, 2B), the “Percentage survival after TNF-α and CHX, retrovirally transduced cells vs GFP” value is listed as “complete protection”. The “Cytosolic cathepsin B activity after TNF-α, retrovirally transduced cells” value in assay [2] (TNF-α 0.2 ng/ml, CHX 0.1 μg/ml, FIG. 1C, 7A) was “extinguished”.
